Source: patent US8221729B2, “Use of aminophenylbenzotriazole derivatives for protecting human and animal skin and hair from the harmful effects of UV radiation and cosmetic compositions thereof” (BASF SE, priority 2006, dated 2012)

Assay: UV-spectrum in ethanol
Assay type: physicochemical
Settings: for UV-spectrum: ε: at λmax, in M-1cm-1 (unit assumed)

Row | UV-spectrum: λmax [nm] | UV-spectrum: ε | SMILES
1 | 346 | 29933 | CCCCCC(=O)Nc1ccc(-n2nc3ccccc3n2)c(O)c1 [Example A-2]
2 | 385 | 29591 | CCN(CC)c1ccc(-n2nc3ccccc3n2)c(O)c1 [Example A-1]
